Results on 15 compounds are retold here after patent US11214548B2, “Cannabinoid receptor modulators” (priority 2009, dated 2022).

The subject of experiment [1] is hypersensitivity following ligation of spinal nerves. Particulars: rats, cited from earlier work.
For another experiment, the system named is hyperalgesia. Particulars: rodents, systemic delivery; cited from earlier work.
Another experiment deals with vagus nerve preparations. The conditions noted are these: guinea pig and human vagus nerve preparations in vitro; cited from earlier work.
The next experiment relates to acute and chronic pain. The conditions noted are these: animal studies; cited from earlier work.
The subject of another experiment is RPE cells. Particulars: cited from earlier work.
Experiment [2] has as its system MIA model of osteoarthritis. The experiment is described as follows: MIA model of osteoarthritis pain (von Frey, weight distribution, grip strength). The conditions noted are these: 3, 10 and 30 mg/kg orally, one hour after dosing, FIG. 2. The format is in vivo, male Sprague Dawley rats. The text has this:
Example 5: Effect of Compounds on Osteoarthritis Pain
Injection of monosodium iodoacetate (MIA) into a joint (Kalbhen, 1987) inhibits the activity of glyceraldehyde-3-phosphate dehydrogenase in chondrocytes, resulting in disruption of glycolysis and eventually in cell death. The progressive loss of chondrocytes results in histological and morphological changes of the articular cartilage, closely resembling those seen in osteoarthritis patients.
The osteoarthritis was induced in 200 g male Sprague Dawley rats. […]
Typically during disease progression, there was an inflammation period of 0-7 days post-intra-articular injection followed by progressive degeneration of the cartilage and subchondral bone from days 14-55. […] Tactile allodynia was measured via von Frey assay, hind limb paw weight distribution was monitored using an incapacitence tester (Columbus Instruments, Columbus, Ohio, USA) and hind limb grip strength was measured using a grip strength meter (Columbus Instruments, Columbus, Ohio, USA). […] Hind paw weight distribution was determined by placing rats in a chamber so that each hind paw rests on a separate force plate of the incapacitence tester. The force exerted by each hind limb (measured in grams) is averaged over a 3 second period. Three measurements were taken for each rat, and the change in hind paw weight distribution calculated. […]

Experiment [3] relates to FCA-induced hyperalgesia model of inflammatory pain. The experiment is described as follows: FCA-induced hyperalgesia in rats. The format is in vivo, male Sprague Dawley rats. Particulars: 0.1, 1, 3, 10 and 30 mg/kg orally, 1 h post dosing, FIG. 1. On the procedure:
Example 7: Effect of Compounds on FCA-Induced Hyperalgesia in Rats
Male Sprague Dawley rats from Harlan (200-225 g when received) were used. Upon arrival, rats were housed 4 per cage in shoe-box polycarbonate cages with wire tops, wood chip bedding and suspended food and water bottles. Animals were acclimated for 5-7 days prior to being injected with Freund's complete adjuvant (FCA) (Sigma; catalog #5881).
2 days (48 h) before testing compounds, baseline readings of all rats were taken right before FCA injection. Rats were then injected with 50 μL FCA containing 1 mg/mL Mtb (Mycobacterium tuberculosis) in right hind footpad under inhalation anesthesia (isoflurane). 48 hours after FCA injection, readings were taken as pre-dosing baseline and then rats were dosed orally with 0.5 mL of vehicle or compound (0.5 mL per 250 g rat). Readings were taken again at 1 h post dosing. All readings were taken with an Analgesy-Meter (Ugo Basile) which measures mechanical hyperalgesia via paw pressure.
FCA-induced hyperalgesia was tested with an Analgesy-Meter. Briefly, the Analgesy Meter applied an increasing pressure to the right hind paw. The paw withdrawal threshold was the pressure leading to withdrawal.
Meanwhile a group of rats were dosed orally with 50 mg/kg of Diclofenac as a positive control. Readings were taken again at 1 h post dosing. Dosing volume was 500 μL per 250 g rat.

Experiment [4] deals with paclitaxel model of cancer pain. Nature of the experiment: Paclitaxel-induced allodynia in Sprague Dawley rats. Particulars: 10 mg/kg orally. The experiment is classed as in vivo, male Sprague Dawley rats. On the procedure:
Example 8: Paclitaxel-Induced Allodynia in Sprague Dawley Rats
Male Sprague Dawley rats [200-250 g] (Harlan Laboratories Inc., Livermore, Calif.) were housed three per cage and maintained in a humidity-controlled (40-60%) and temperature-controlled (68-72° F.) facility on a 12 h:12 h light/dark cycle (lights on at 6:30 am) with free access to food (Harlan Teklad, Orange, Calif., Rodent Diet 8604) and water. Rats were allowed one week of habituation to the animal facility before starting treatment.
Rats were treated intraperitoneally, with 2 mg/kg of paclitaxel (Sigma Aldrich, Saint Louis, Mo.) in 10% Cremophor vehicle (500 μL) on days 0, 2, 4, and 6.
Tactile allodynia was tested using von Frey filaments. Briefly, the von Frey assay was performed using the standardized up down method with von Frey filaments, that determine the tactile sensitivity of the paw. By applying the increasingly or decreasingly thicker filaments to the paw in a logarithmic scale of actual force, a linear scale of perceived intensity is determined.
Eight days after the start of paclitaxel dosing, a baseline measurement (von Frey assay) was performed prior to dosing of compounds. […] As a positive control, rats were dosed intraperitoneally with 100 mg/kg gabapentin in water. The dosing volume for oral and peritoneal treatment was 500 μL. […]

Experiment [5] concerns Streptozotocin-Induced Painful Diabetic Peripheral Neuropathy (PDPN) Model. The experiment is described as follows: Streptozotocin-induced painful diabetic peripheral neuropathy (PDPN) model. The conditions noted are these: 10 mg/kg orally in 0.5% methylcellulose; 1, 4 and 6 hours post-dosing, FIG. 17 and FIG. 18. The experiment is classed as in vivo, male Sprague-Dawley rats. On the procedure:
Example 12: Streptozotocin-Induced Painful Diabetic Peripheral Neuropathy (PDPN) Model
Male Sprague-Dawley rats were injected intraperitoneally with 50 mg/kg of streptozotocin (STZ) in sodium citrate buffer. 10% sucrose water was provided ad libitum for the first 48 hours post-STZ followed by regular drinking water. Rats were monitored once weekly for blood glucose levels and body weights. Development of tactile allodynia over time was analyzed using Von Frey filaments and a 50% withdrawal threshold was determined using Dixon's up-down procedure. […] Tactile allodynia was evaluated at 1, 4 and 6 hours post-dosing.

In experiment [6] the test system is allergic contact dermatitis. Particulars: mouse, injection; cited from earlier work.
Experiment [7] deals with bovine nasal cartilage explants. Particulars: bovine nasal cartilage explants in vitro; cited from earlier work.
The subject of experiment [8] is capsaicin-induced hyperalgesia and allodynia. The conditions noted are these: humans, topical administration; cited from earlier work.
In experiment [9] the test system is histamine-induced responses. The conditions noted are these: human skin, topical administration; cited from earlier work.
The subject of experiment [10] is bone marrow-derived osteoblasts/stromal cells. The conditions noted are these: in vitro; cited from earlier work.
The subject of experiment [11] is ovariectomy-induced bone loss. The conditions noted are these: in vivo; cited from earlier work.
For a further experiment, the system named is EAE. Particulars: cited from earlier work.
The next experiment concerns cough. The conditions noted are these: conscious guinea-pigs, administration prior to citric acid; cited from earlier work.
In another experiment the test system is atherosclerosis. Particulars: cited from earlier work.
The subject of another experiment is CB1. The conditions noted are these: exogenous administration; cited from earlier work.

Regarding `COc1ccc(C(=O)c2c(C)n(CCN3CCOCC3)c3cc(I)ccc23)cc1` [AM630], the “inhibition of the AM1241 effect on tactile and thermal hypersensitivity” value in experiment [1] is “inhibited”.

As to `CN1CCCCC1Cn1cc(C(=O)c2cc([N+](=O)[O-])ccc2I)c2ccccc21` (centres unmarked) [AM1241], the “hyperalgesia induced in the carrageenan, capsaicin, and formalin models” value with hyperalgesia is given as “suppresses”. Further, the “tactile and thermal hypersensitivity” value in [1] (local (subcutaneous) or systemic administration, chronic constriction injury model) is “reverses”.

For the compound `CCCCCCC(C)(C)c1ccc([C@@H]2C[C@H](O)CC[C@H]2CCCO)c(O)c1` [CP55,940], the “capsaicin-, PGE2- and hypertonic saline-induced depolarization” value with vagus nerve preparations is listed as “reduces”. In addition, in the experiment on acute and chronic pain, the “effect against acute and chronic pain from chemical, mechanical, and thermal pain stimuli” value is on record as “effective”. The “protection of RPE cells from oxidative damage” value in the experiment on RPE cells is “significantly protects”.

On to `CC(C)(CO)NC(=O)c1nn(-c2ccc(F)cc2F)c2c1C[C@H]1C[C@@H]21` [Compound 493, (1aR,5aR)-2-(2,4-Difluoro-phenyl)-1a,2,5,5a-tetrahydro-1H-2,3-diaza-cyclopropa[a]pentalene-4-carboxylic Acid (2-Hydroxy-1,1-dimethyl-ethyl)-amide], for which the “paw withdrawal threshold (PWT) in comparison with vehicle” value in experiment [2] was “Increase in paw withdrawal threshold (PWT)”. Further, the “paw withdrawal threshold (PWT) in comparison with the vehicle” value in experiment [3] is recorded as “increase in paw withdrawal threshold (PWT)”. Moreover, the “time of maximum efficacy post-dosing” value in [4] (von Frey time course) was determined as 1 h. For the same compound, in experiment [4] (30, 60 and 180 minutes after dosing, FIG. 3), the “paw withdrawal threshold (PWT) in comparison with vehicle and gabapentin” value is listed as “increase in paw withdrawal threshold (PWT)”.

For `CC(C)(C)[C@@H](CO)NC(=O)c1nn(-c2c[n+]([O-])ccn2)c2c1C[C@@H]1C[C@H]21` [Compound 699, (1aS,5aS)-2-(4-Oxy-pyrazin-2-yl)-1a,2,5,5a-tetrahydro-1H-2,3-diaza-cyclopropa[a]pentalene-4-carboxylic Acid ((S)-1-Hydroxymethyl-2,2-dimethyl-propyl)-amide], in experiment [5], the “analgesic efficacy (tactile allodynia, 50% withdrawal threshold)” value was “robust and sustained analgesic efficacy over 6 hours”.

As to `CC(C)(NC(=O)c1nn(-c2c[n+]([O-])ccn2)c2c1C[C@@H]1C[C@H]21)C(F)(F)F` [Compound 919, (1aS,5aS)-2-(4-Oxy-pyrazin-2-yl)-1a,2,5,5a-tetrahydro-1H-2,3-diaza-cyclopropa[a]pentalene-4-carboxylic acid (2,2,2-trifluoro-1,1-dimethyl-ethyl)-amide], the “analgesic efficacy (tactile allodynia, 50% withdrawal threshold)” value in experiment [5] was “robust and sustained analgesic efficacy over 6 hours”.

As to `Cc1c(C(=O)NN2CCCCC2)nn(-c2ccc(Cl)cc2Cl)c1-c1ccc(Cl)cc1` [Compound S141716A, S141716A], the “cutaneous inflammation and the pruritis (itch) associated with it” value (from here on “cutaneous inflammation and the pruritis”) in [6] was “exacerbates”.

As to `COc1ccc2c(c1)c(CCN1CCOCC1)c(C)n2C(=O)c1cccc(Cl)c1Cl` [GW405833], the “hypersensitivity to mechanical stimuli” value in [1] (administered systemically) is “significantly reverses”.

On to `CCCCCCC(C)(C)c1cc(O)c2c(c1)OC(C)(C)[C@@H]1CC=C(CO)C[C@@H]21` [HU-210], for which the “IL-1alpha-stimulated proteoglycan and collagen degradation” value in experiment [7] is given as “significantly inhibit”. The “capsaicin-induced hyperalgesia and allodynia” value in experiment [8] is given as “attenuates”. Also, in experiment [9], the histamine-induced responses result is “reduces”.

Regarding `CCCCCCC(C)(C)c1cc(OC)c([C@@H]2C=C(CO)[C@@H]3C[C@H]2C3(C)C)c(OC)c1` [HU-308], in [10], the “endocortical osteoblast numbers and activity” value is on record as “enhances”; the “proliferation of osteoclast precursors” value is recorded as “inhibiting”. For the same compound, in experiment [11], the ovariectomy-induced bone loss result is reported as “attenuates”. For the same compound, the “recruitment of immature myeloid cells and T cells, microglial and infiltrating myeloid cell proliferation, and axonal loss” value with EAE (EAE model) is given as “markedly reduces”.

On to `CCCn1c(C)c(C(=O)c2cccc3ccccc23)c2ccccc21` [JWH015], for which, in the experiment on RPE cells, the “protection of RPE cells from oxidative damage” value was “comparable protection”.

On to `CCCC(C)(C)c1ccc2c(c1)OC(C)(C)[C@@H]1CC=C(C)C[C@@H]21` [JWH133], for which, in the experiment with vagus nerve preparations, the “capsaicin-, PGE2- and hypertonic saline-induced depolarization” value is “reduces”. Further, the cough result in the experiment on cough was “significantly reduces”.

For the compound `CCCCCc1cc(O)c2c(c1)OC(C)(C)[C@@H]1CCC(C)=C[C@@H]21` [THC], the “cutaneous inflammation and the pruritis” value in [6] was “reduces”. In addition, the “effect against acute and chronic pain from chemical, mechanical, and thermal pain stimuli” value in the experiment with acute and chronic pain is on record as “effective”. For the same compound, in the experiment on atherosclerosis (ApoE knockout mice), the progression of atherosclerosis result was “reduces”. For the same compound, the “severity of clinical disease” value in the experiment with EAE (EAE mouse model) is on record as “significantly inhibits”.

On to `CCCCC/C=C\C/C=C\C/C=C\C/C=C\CCCC(=O)NCCCl` [arachidonyl-2-chloroethylamide], for which, in the experiment with CB1, the pain result is reported as “reduces”.

SR144528: the “cutaneous inflammation and the pruritis” value in experiment [6] is “exacerbates”. The “blockade of the THC effect on atherosclerosis” value in the experiment on atherosclerosis (in vitro and in vivo) is “completely blocks”. In the experiment on EAE (EAE mouse model), the “blockade of the WIN 55212-2 effect on leukocyte rolling and adhesion” value is “blocked”.
